How the values were obtained:
Assay type in all cases: physicochemical
[1] = Thermogravimetric analysis (loss of mass before melting/degradation); conditions: 25° C. to 250° C. at about 10° C./minute
Description: Thermogravimetric analysis (TGA) was performed. A 10 to 20 mg of sample of a crystalline form of 4-[(7-methoxy-2,3-dihydro-1,4-benzothiazepin-4(5H)yl)methyl]benzoic acid hemifumarate was placed into an aluminum pan, with nitrogen purge. The sample was equilibrated at 25° C. in a temperature-controlled chamber. The sample was heated at a scan rate of about 10° C./minute to 250° C. under nitrogen purge. A TGA Q5000 thermogravimetric analysis instrument was used.

[2] = Stability of Form 2 in an airtight glass bottle for up to 24 months under various storage conditions; set-up: key to Appearance: A1: White or almost white powder; key to Identification: I1: Spectrum of test sample identical to spectrum of reference sample; I3: Spectrum of test sample identical to spectrum of reference sample stored at −18° C
Description: Stability of 4-[(7-methoxy-2,3-dihydro-1,4-benzothiazepin-4(5H)yl)methyl]benzoic acid hemifumarate Form 2 was evaluated for up to 24 months under various conditions.

[3] = Competitive slurry experiments mixing Form 1 and Form 2 in various solvents; conditions: competitive slurry experiments at 15° C. and 40° C.
Description: Competitive slurry experiments were performed at 15° C. (Table 5) or 40° C. (Table 6) by mixing Form 1 and Form 2 in various solvents in acetonitrile/water, acetone/water and methanol/water mixtures. […] (Table 5) or 40° C. (Table 6).

With `COc1ccc2c(c1)CN(Cc1ccc(C(=O)O)cc1)CCS2.O=C(O)/C=C/C(=O)O` [Form 2, 4-[(7-methoxy-2,3-dihydro-1,4-benzothiazepin-4(5H)yl)methyl]benzoic acid, hemifumarate] the “Loss of mass before melting degradation (TGA)” value [1] was less than 0.1%, the Appearance ([2]; 25° C./60% RH, 1 Y) was “A1” and the “Assay of Drug substance (LC)” value ([2]; 25° C./60% RH, 1 Y) was 99.8%. For the same molecule, the Identification ([2]; 25° C./60% RH, 1 Y) was “I3”, the “Related substances content (LC) Sum of impurities” value (shortened to “Related substances content”) ([2]; 25° C./60% RH, 1 Y) was no more than 0.05% and the Water content ([2]; 25° C./60% RH, 1 Y) was less than 0.1%. For the same molecule, the Appearance ([2]; 25° C./60% RH, 2 Y) was “A1”, the Assay by potentiometry ([2]; 25° C./60% RH, 2 Y) was 99.6% and the “Assay of Drug substance (LC)” value ([2]; 25° C./60% RH, 2 Y) was 99.5%. For the same molecule, the Identification ([2]; 25° C./60% RH, 2 Y) was “I3”, the “Related substances content” value ([2]; 25° C./60% RH, 2 Y) was no more than 0.05% and the Water content ([2]; 25° C./60% RH, 2 Y) was less than 0.1%. For the same molecule, the Appearance ([2]; 25° C./60% RH, 3 M) was “A1”, the Assay by potentiometry ([2]; 25° C./60% RH, 3 M) was 100.0% and the “Assay of Drug substance (LC)” value ([2]; 25° C./60% RH, 3 M) was 99.6%. The Identification ([2]; 25° C./60% RH, 3 M) was “I3”, the “Related substances content” value ([2]; 25° C./60% RH, 3 M) was no more than 0.05% and the Water content ([2]; 25° C./60% RH, 3 M) was 0.1%. For the same molecule, the Appearance ([2]; 25° C./60% RH, 6 M) was “A1”, the Assay by potentiometry ([2]; 25° C./60% RH, 6 M) was 102.1% and the “Assay of Drug substance (LC)” value ([2]; 25° C./60% RH, 6 M) was 99.7%. The Identification ([2]; 25° C./60% RH, 6 M) was “I3”, the “Related substances content” value ([2]; 25° C./60% RH, 6 M) was no more than 0.05% and the Water content ([2]; 25° C./60% RH, 6 M) was 0.1%. For the same molecule, the Appearance ([2]; 25° C./60% RH, 6 W) was “A1”, the Assay by potentiometry ([2]; 25° C./60% RH, 6 W) was 99.7% and the “Assay of Drug substance (LC)” value ([2]; 25° C./60% RH, 6 W) was 102.5%. For the same molecule, the Identification ([2]; 25° C./60% RH, 6 W) was “I3”, the “Related substances content” value ([2]; 25° C./60% RH, 6 W) was no more than 0.05% and the Water content ([2]; 25° C./60% RH, 6 W) was less than 0.1%. The Appearance ([2]; 25° C./60% RH, 9 M) was “A1”, the Assay by potentiometry ([2]; 25° C./60% RH, 9 M) was 99.1% and the “Assay of Drug substance (LC)” value ([2]; 25° C./60% RH, 9 M) was 100.6%. The Identification ([2]; 25° C./60% RH, 9 M) was “I3”, the “Related substances content” value ([2]; 25° C./60% RH, 9 M) was no more than 0.05% and the Water content ([2]; 25° C./60% RH, 9 M) was less than 0.1%. The Appearance ([2]; 25° C./60% RH, 18 M) was “A1”, the Assay by potentiometry ([2]; 25° C./60% RH, 18 M) was 99.8% and the “Assay of Drug substance (LC)” value ([2]; 25° C./60% RH, 18 M) was 100.9%. For the same molecule, the Identification ([2]; 25° C./60% RH, 18 M) was “I3”, the “Related substances content” value ([2]; 25° C./60% RH, 18 M) was no more than 0.05% and the Water content ([2]; 25° C./60% RH, 18 M) was 0.1%. For the same molecule, the Appearance ([2]; 25° C./60% RH, T0) was “A1”, the Assay by potentiometry ([2]; 25° C./60% RH, T0) was 99.9% and the “Assay of Drug substance (LC)” value ([2]; 25° C./60% RH, T0) was 99.7%. For the same molecule, the Identification ([2]; 25° C./60% RH, T0) was “I1”, the “Related substances content” value ([2]; 25° C./60% RH, T0) was no more than 0.05% and the Water content ([2]; 25° C./60% RH, T0) was 0.1%. The Appearance ([2]; 30° C./65% RH, 1 Y) was “A1”, the “Assay of Drug substance (LC)” value ([2]; 30° C./65% RH, 1 Y) was 99.5% and the Identification ([2]; 30° C./65% RH, 1 Y) was “I3”. For the same molecule, the “Related substances content” value ([2]; 30° C./65% RH, 1 Y) was no more than 0.05%, the Water content ([2]; 30° C./65% RH, 1 Y) was less than 0.1% and the Appearance ([2]; 30° C./65% RH, 3 M) was “A1”. For the same molecule, the Assay by potentiometry ([2]; 30° C./65% RH, 3 M) was 99.8%, the “Assay of Drug substance (LC)” value ([2]; 30° C./65% RH, 3 M) was 99.7% and the Identification ([2]; 30° C./65% RH, 3 M) was “I3”. For the same molecule, the “Related substances content” value ([2]; 30° C./65% RH, 3 M) was no more than 0.05%, the Water content ([2]; 30° C./65% RH, 3 M) was 0.1% and the Appearance ([2]; 30° C./65% RH, 6 M) was “A1”. For the same molecule, the Assay by potentiometry ([2]; 30° C./65% RH, 6 M) was 100.4%, the “Assay of Drug substance (LC)” value ([2]; 30° C./65% RH, 6 M) was 100.2% and the Identification ([2]; 30° C./65% RH, 6 M) was “I3”. The “Related substances content” value ([2]; 30° C./65% RH, 6 M) was no more than 0.05%, the Water content ([2]; 30° C./65% RH, 6 M) was 0.1% and the Appearance ([2]; 30° C./65% RH, 6 W) was “A1”. The Assay by potentiometry ([2]; 30° C./65% RH, 6 W) was 99.8%, the “Assay of Drug substance (LC)” value ([2]; 30° C./65% RH, 6 W) was 102.4% and the Identification ([2]; 30° C./65% RH, 6 W) was “I3”. The “Related substances content” value ([2]; 30° C./65% RH, 6 W) was no more than 0.05%, the Water content ([2]; 30° C./65% RH, 6 W) was less than 0.1% and the Appearance ([2]; 30° C./65% RH, 9 M) was “A1”. For the same molecule, the Assay by potentiometry ([2]; 30° C./65% RH, 9 M) was 99.6%, the “Assay of Drug substance (LC)” value ([2]; 30° C./65% RH, 9 M) was 99.7% and the Identification ([2]; 30° C./65% RH, 9 M) was “I3”. The “Related substances content” value ([2]; 30° C./65% RH, 9 M) was no more than 0.05%, the Water content ([2]; 30° C./65% RH, 9 M) was less than 0.1% and the Appearance ([2]; 30° C./65% RH, T0) was “A1”. For the same molecule, the Assay by potentiometry ([2]; 30° C./65% RH, T0) was 99.9%, the “Assay of Drug substance (LC)” value ([2]; 30° C./65% RH, T0) was 99.7% and the Identification ([2]; 30° C./65% RH, T0) was “I1”. For the same molecule, the “Related substances content” value ([2]; 30° C./65% RH, T0) was no more than 0.05%, the Water content ([2]; 30° C./65% RH, T0) was 0.1% and the Appearance ([2]; 40° C./75% RH, 3 M) was “A1”. The Assay by potentiometry ([2]; 40° C./75% RH, 3 M) was 99.8%, the “Assay of Drug substance (LC)” value ([2]; 40° C./75% RH, 3 M) was 99.5% and the Identification ([2]; 40° C./75% RH, 3 M) was “I3”. The “Related substances content” value ([2]; 40° C./75% RH, 3 M) was no more than 0.05%, the Water content ([2]; 40° C./75% RH, 3 M) was 0.1% and the Appearance ([2]; 40° C./75% RH, 6 M) was “A1”. For the same molecule, the Assay by potentiometry ([2]; 40° C./75% RH, 6 M) was 100.5%, the “Assay of Drug substance (LC)” value ([2]; 40° C./75% RH, 6 M) was 99.2% and the Identification ([2]; 40° C./75% RH, 6 M) was “I3”. The “Related substances content” value ([2]; 40° C./75% RH, 6 M) was no more than 0.05%, the Water content ([2]; 40° C./75% RH, 6 M) was 0.1% and the Appearance ([2]; 40° C./75% RH, 6 W) was “A1”. The Assay by potentiometry ([2]; 40° C./75% RH, 6 W) was 99.8%, the “Assay of Drug substance (LC)” value ([2]; 40° C./75% RH, 6 W) was 102.2% and the Identification ([2]; 40° C./75% RH, 6 W) was “I3”. For the same molecule, the “Related substances content” value ([2]; 40° C./75% RH, 6 W) was no more than 0.05%, the Water content ([2]; 40° C./75% RH, 6 W) was 0.1% and the Appearance ([2]; 40° C./75% RH, T0) was “A1”. For the same molecule, the Assay by potentiometry ([2]; 40° C./75% RH, T0) was 99.9%, the “Assay of Drug substance (LC)” value ([2]; 40° C./75% RH, T0) was 99.7% and the Identification ([2]; 40° C./75% RH, T0) was “I1”. For the same molecule, the “Related substances content” value ([2]; 40° C./75% RH, T0) was no more than 0.05%, the Water content ([2]; 40° C./75% RH, T0) was 0.1% and the Appearance ([2]; −18° C., 1 Y) was “A1”. For the same molecule, the Water content ([2]; −18° C., 1 Y) was less than 0.1%, the Appearance ([2]; −18° C., 2 Y) was “A1” and the Water content ([2]; −18° C., 2 Y) was less than 0.1%. For the same molecule, the Appearance ([2]; −18° C., 3 M) was “A1”, the Water content ([2]; −18° C., 3 M) was 0.1% and the Appearance ([2]; −18° C., 6 M) was “A1”. The Water content ([2]; −18° C., 6 M) was 0.1%, the Appearance ([2]; −18° C., 6 W) was “A1” and the Assay by potentiometry ([2]; −18° C., 6 W) was 99.9%. For the same molecule, the Identification ([2]; −18° C., 6 W) was “I3”, the Water content ([2]; −18° C., 6 W) was 0.1% and the Appearance ([2]; −18° C., 9 M) was “A1”. For the same molecule, the Assay by potentiometry ([2]; −18° C., 9 M) was 99.7%, the Water content ([2]; −18° C., 9 M) was less than 0.1% and the Appearance ([2]; −18° C., 18 M) was “A1”. The Water content ([2]; −18° C., 18 M) was 0.1%, the Appearance ([2]; −18° C., T0) was “A1” and the Assay by potentiometry ([2]; −18° C., T0) was 99.9%. The “Assay of Drug substance (LC)” value ([2]; −18° C., T0) was 99.7%, the Identification ([2]; −18° C., T0) was “I1” and the “Related substances content” value ([2]; −18° C., T0) was no more than 0.05%. The Water content ([2]; −18° C., T0) was 0.1% and the “Relative stability of the forms” value [3] was “more stable than Form 1”.
